The source of these data is patent publication US20250049966A1, “SMALL MOLECULE TRACER FOR IMAGING ALPHA-SYNUCLEIN AGGREGATES” (Fudan University, priority 2021, published 2025).

“Also recorded” adds a separate entry of the source. Read-outs that look alike come from different tables or passages of the source.

Data set [1] has as its target T1, human α-synuclein aggregates (Homo sapiens, UniProt P37840).
T1 construct: made in house; host or cells: E. coli BL21 (DE3)
The experiment in a line: Fluorescence saturation binding of compounds to α-synuclein aggregates. The procedure:
1 μL ampicillin anti-plasmid with α-synuclein in the correct sequence was mixed with 100 μL BL21 (DE3) receptive cells, cooled in an ice bath, added in 600 μL LB medium, and cultured in a 220 rpm shaking bed at 37° C. for 90 min. 150 μL cultured bacterial solution was added to the sterilized dish coated with ampicillin medium evenly. Positive clonal colonies were selected and added to the configured ampicillin medium and cultured in an incubator at 37° C. The cultured positive clones were poured into 1 L of 2×YT medium and cultured in a 220 rpm shaker at 37° C. to make OD 600 0.6 and then cooled to 18° C. Each medium was induced to culture for 16 hours by adding 1 ml of IPTG (500 mM).
The bacteria were centrifuged at high speed for 30 min after ultrasonic. The supernatant was collected to remove DNA and hetero-proteins by Ni-NTA chromatography. α-synuclein monomer was purified by molecular exclusion chromatography and the purity was verified by SDS-PAGE discontinuous electrophoresis.
α-synuclein monomers were prepared into a buffer solution containing 1×PBS, wherein the final protein concentration was 100 μM (about 5 mg/mL), and incubated in a 1000 rpm shaker at 37° C. for 7 days to obtain α-synuclein aggregates. The initial and final concentrations of the monomer protein were determined by the BCA method.
10 mM mother solution of DMSO was prepared from 1 mg of the compound, then diluted to 20 μM with PBS, and made gradient dilution 7 times (3× each dilution); 30 μL of test compound was added to the 384-well plate, following the experimental group was added to 30 μL α-synuclein aggregates (3 μM), and the control group was added to the same amount of PBS. After the 384-well plate was incubated shaking at 50 rpm at room temperature for 1 hour, the plate was taken out to detect the maximum absorption and emission wavelengths of the compound with an ELISA Microplate Reader, and the fluorescence values were detected at these wavelengths, too. The fluorescence changes in different concentrations of compounds were calculated using the experimental group data minus the control group data, and the protein-binding affinity of compounds was obtained using the Saturation binding module of GraphPad Prism.
The binding affinity of the Formula I compound to α-synuclein aggregates is determined by the above method, and the dissociation equilibrium constant Kd is shown in Table 1.

Data set [2] has as its system Tau neurofibrillary filaments. The experiment in a line: Fluorescence staining of brain slices from patients with Alzheimer's disease (AD), Tau. As to conditions: 30 μM compound, superior temporal gyrus sections 6 μm, fluorescence microscopy, FIG. 2. The data set is classed as binding, human. As to the method:
(§1) The tested compound was diluted to 30 μM with PBS solution containing 50% EtOH, following incubated with the fresh frozen brain sections at room temperature for 30 minutes, then washed with 50% ethanol solution for 5 minutes and ultra-pure water twice for 3 minutes each time in sequence. After the sections were buried with an embedding agent (VECTASHIELD H-1000, Vector Laboratories), images of the lesion accumulation area on the sections were obtained by fluorescence microscopy. Analysis software (Image J) was used to quantify the fluorescence radiance of both the lesion area and the area of the non-forming lesion (background) to evaluate binding selectivity.
(§2) The dewaxed brain tissue was fixed in a 10% neutral buffer of formalin solution, embedded with paraffin, and then sliced with a thickness of 6 μm. The staining method is the same as the above method for DLB patients.

Data set [3] in a line: Blood-brain barrier permeability test, rat tail vein injection. It counts as in vivo. As to conditions: brain / blood supernatant after centrifugation, intravenous, SD rats, 5 mg/kg tail vein, 20 min after administration, LC-MS/MS, read-out: brain/blood ratio. As to the method:
The compound of the invention is injected into a rat tail vein to determine the blood-brain barrier permeability in vivo according to the following method.
Dissolve the tested compound in DMSO, and add castor oil and PBS for dilution (DMSO:castor oil:PBS=1:1:8). SD rats were weighed and given 5 mg/kg in the tail vein. 500 μL of blood was taken 20 min after administration after anesthetized with isoflurane. Cardiac perfusion was performed with 200 mL PBS and stopped until the organ faded, following brain tissue was got out and washed with PBS.
After centrifuging the extracted blood at 9000 rpm for 5 min, 200 μL supernatant was taken and added 800 μL methanol. After centrifuging at 14000 rpm for 10 min, the supernatant was taken and filtered through a 0.22 μm filter membrane and stored at −80° C. for use.
2 mL PBS and 2 mL methanol were added to about 0.5 g of brain tissue to make a tissue homogenization, and then 1 mL homogenate was taken out and centrifuged at 14,000 rpm for 10 min after 2 mL methanol was added, 1 mL supernatant was taken through 0.22 μm filter membrane and stored at −80° C. for use. The concentration of compounds in the above supernatant of blood and brain homogenate were checked by LC-MS/MS, respectively.

The target in a further data set is T2, Aβ lesions (Homo sapiens, UniProt P05067).
T2 construct: from tissue
The data set is described as follows: Fluorescence staining of brain slices from patients with Alzheimer's disease (AD), Aβ. It counts as binding. The following applies: 30 μM compound, superior temporal gyrus sections 6 μm, fluorescence microscopy, FIG. 2. As to the method: as §1, §2

Data set [4] deals with T3, Lewy bodies and Lewy neurites (α-synuclein lesions) (Homo sapiens, UniProt P37840).
T3 construct: from tissue; host or cells: human amygdala, DLB patient, fresh frozen sections
The data set is described as follows: Fluorescence staining of brain slices from patients of dementia with Lewy body (DLB). The data set is classed as binding. The following applies: for Staining of Lewy bodies and Lewy neurites in DLB patient brain slices: 30 μM compound, frozen amygdala sections 20 μm, fluorescence microscopy, FIG. 1; for Binding to α-synuclein pathological tissue compared with Aβ and Tau pathological tissue (selectivity): DLB versus AD brain slices, FIG. 1 and FIG. 2. As to the method:
Brain slices from patients with dementia with Lewy bodies were taken from the amygdala of a deceased person in stage 2 of dementia with Lewy bodies. Frozen sections of the amygdala with rich α-synuclein were performed with a thickness of 20 μm.
as §1

[5] abbreviates: fluorescence method, α-synuclein aggregates (3 μM), room temperature 1 hour, read-out: Binding affinity (Kd) on human α-synuclein aggregates.

T2 sequence (P05067 672-713 limits assumed): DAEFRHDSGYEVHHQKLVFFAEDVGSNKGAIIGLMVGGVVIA

In general, Kd refers to the equilibrium constant for the complex coming apart. Turning to `CN(C)c1ccc(-c2nc3cc(-c4cccnc4)ccc3o2)cn1` [I-1], the Kd in data set [1] (setting [5]) lay in the range of 500 to 1000 nM.

Turning to `CN(C)c1ccc(-c2nc3cc(-c4cccnc4)ccc3o2)cc1` [I-2], the equilibrium dissociation constant (Kd) in data set [1] (setting [5]) is 500 to 1000 nM.

With `CN1CCN(c2ccc3oc(-c4ccc(N(C)C)nc4)nc3c2)C(=O)C1` [I-4], the “Staining/binding of Tau neurofibrillary filaments in AD patient brain slices” value in data set [2] is “fail to Tau neurofibrillary filaments; also recorded: no binding”. Besides, in data set [3], the Kp at 20 min is no less than 1. The “Staining/binding of Aβ lesions in AD patient brain slices” value (shortened to “Staining/binding of Aβ lesions”) on Aβ lesions is reported as “could also detect Aβ lesions; also recorded: very weak binding”. In addition, in data set [4], the “Staining of Lewy bodies and Lewy neurites in DLB patient brain slices” value (from here on “Staining … in DLB patient brain slices”) is “can stain Lewy bodies and Lewy neurites; also recorded: can well label the α-synuclein in Lewy bodies and Lewy neurites”; the “Binding to α-synuclein pathological tissue compared with Aβ and Tau pathological tissue (selectivity)” value is listed as “significantly stronger”. The compound further showed a Kd in data set [1] of 100 to 200 nM.

As to `Fc1ccc(-c2ccc3oc(-c4ccc(N5CCCC5)nc4)nc3c2)cn1` [I-5], the “Staining/binding of Tau neurofibrillary filaments in AD patient brain slices” value in data set [2] is given as “fail to Tau neurofibrillary filaments; also recorded: no binding”. Besides, the Kp at 20 min in data set [3] was no less than 1. Moreover, the “Staining/binding of Aβ lesions” value on Aβ lesions is on record as “could also detect Aβ lesions; also recorded: very weak binding”. Besides, in data set [4], the “Staining … in DLB patient brain slices” value is “can stain Lewy bodies and Lewy neurites; also recorded: can well label the α-synuclein in Lewy bodies and Lewy neurites”; the “Binding to α-synuclein pathological tissue compared with Aβ and Tau pathological tissue (selectivity)” value is “significantly stronger”. In addition, the Kd in data set [1] (setting [5]) lay in the range of 200 to 500 nM.

On to `Fc1ccc(-c2ccc3nc(-c4ccc(N5CCCC5)nc4)oc3c2)cn1` [I-6], for which the “Staining/binding of Tau neurofibrillary filaments in AD patient brain slices” value in data set [2] is on record as “fail to Tau neurofibrillary filaments; also recorded: no binding”. For the same compound, in data set [3], the Kp at 20 min is no less than 1. In addition, the “Staining/binding of Aβ lesions” value at Aβ lesions is reported as “could also detect Aβ lesions; also recorded: very weak binding”. In data set [4], the “Staining … in DLB patient brain slices” value is “can stain Lewy bodies and Lewy neurites; also recorded: can well label the α-synuclein in Lewy bodies and Lewy neurites”; the “Binding to α-synuclein pathological tissue compared with Aβ and Tau pathological tissue (selectivity)” value is “significantly stronger”. For the same compound, the Kd in data set [1] (setting [5]) lay within 200 to 500 nM.

As to `CN(C)c1ccc(-c2nc3cc(N4CCN(CCF)CC4=O)ccc3o2)cn1` [I-10], in data set [1] (setting [5]), the dissociation constant Kd fell in the range of 200 to 500 nM.
